Laboratory results reported in ChEMBL document CHEMBL1154161, “Synthesis, kinetic studies and pharmacological evaluation of mutual azo prodrugs of 5-aminosalicylic acid for colon-specific drug delivery in inflammatory bowel disease” (Eur J Med Chem, 2009).
The source made the active and inactive calls. The rule behind the calls is not given here.

Legend:
Rattus norvegicus [1] = test: Antiinflammatory activity against trinitrobenzenesulfonic acid-induced colitis in Wistar rat assessed as decrease in appearance of mucosal abscess at 100 mg/kg administered rectally measured 24 hrs after last dose on day 11 by haematoxylin/eosin staining; type: functional, organism-based; parameters: dose 100 mg/kg
Rattus norvegicus [2] = test: Antiinflammatory activity against trinitrobenzenesulfonic acid-induced colitis in Wistar rat assessed as decrease in inflammatory cell infiltration at 100 mg/kg administered rectally measured 24 hrs after last dose on day 11 by haematoxylin/eosin staining in presence of sulfasalazine; type: functional, organism-based; parameters: dose 100 mg/kg
Rattus norvegicus [3] = test: Antiinflammatory activity against trinitrobenzenesulfonic acid-induced colitis in Wistar rat at 100 mg/kg, po; type: functional, organism-based; parameters: dose 100 mg/kg
Rattus norvegicus [4] = test: Antiinflammatory activity against trinitrobenzenesulfonic acid-induced colitis in Wistar rat at 100 mg/kg, administered rectally in presence of 5-aminosalicylic acid; type: functional, organism-based; parameters: dose 100 mg/kg
Rattus norvegicus [5] = test: Antiinflammatory activity against trinitrobenzenesulfonic acid-induced colitis in Wistar rat assessed as decrease in inflammatory cell infiltration at 100 mg/kg, po measured 24 hrs after last dose on day 11 by haematoxylin/eosin staining; type: functional, organism-based; parameters: dose 100 mg/kg
Rattus norvegicus [6] = test: Antiinflammatory activity against trinitrobenzenesulfonic acid-induced colitis in Wistar rat assessed as decrease in appearance of mucosal abscess at 100 mg/kg, po measured 24 hrs after last dose on day 11 by haematoxylin/eosin staining; type: functional, organism-based; parameters: dose 100 mg/kg
Rattus norvegicus [7] = test: Gastrointestinal toxicity in Wistar rat assessed as ulcer index at 3000 mg/kg, po by Rainsford's cold stress method; type: organism-based; parameters: dose 3000 mg/kg, route oral; details: in vivo
Rattus norvegicus [8] = test: Antiinflammatory activity against trinitrobenzenesulfonic acid-induced colitis in Wistar rat assessed as decrease in colon to body weight ratio at 100 mg/kg, po measured 24 hrs after last dose on day 11; type: functional, organism-based; parameters: dose 100 mg/kg
Rattus norvegicus [9] = test: Antiinflammatory activity against trinitrobenzenesulfonic acid-induced colitis in Wistar rat at 100 mg/kg, administered rectally; type: functional, organism-based; parameters: dose 100 mg/kg
Rattus norvegicus [10] = test: Antiarthritic activity against Freund's adjuvant-induced arthritis in Wistar rat assessed as reduction in paw volume administered 13 days after Freund's adjuvant challenge measured on day 21; type: functional; parameters: concentration or dose not given beside the values
Rattus norvegicus [11] = test: Antiinflammatory activity against trinitrobenzenesulfonic acid-induced colitis in Wistar rat assessed as decrease in colonic myeloperoxidase activity at 100 mg/kg, po measured 24 hrs after last dose on day 11 by spectrometry; type: functional, organism-based; parameters: dose 100 mg/kg
Rattus norvegicus [12] = test: Gastrointestinal toxicity in Wistar rat assessed as ulcer index at 1154.3 mg/kg, po by Rainsford's cold stress method; type: organism-based; parameters: dose 1154.3 mg/kg, route oral; details: in vivo
Rattus norvegicus [13] = test: Antiinflammatory activity against trinitrobenzenesulfonic acid-induced colitis in Wistar rat assessed as decrease in appearance of mucosal abscess at 100 mg/kg administered rectally measured 24 hrs after last dose on day 11 by haematoxylin/eosin staining in presence of sulfasalazine; type: functional, organism-based; parameters: dose 100 mg/kg
Rattus norvegicus [14] = test: Antiinflammatory activity against trinitrobenzenesulfonic acid-induced colitis in Wistar rat assessed as decrease in inflammatory cell infiltration at 100 mg/kg administered rectallysmeasured 24 hrs after last dose on day 11 by haematoxylin/eosin staining; type: functional, organism-based; parameters: dose 100 mg/kg
Rattus norvegicus [15] = test: Gastrointestinal toxicity in Wistar rat assessed as ulcer index at 3050 mg/kg, po by Rainsford's cold stress method; type: organism-based; parameters: dose 3050 mg/kg, route oral; details: in vivo
[16] = Aqueous solubility of the compound; type: physicochemical; details: aqueous medium
[17] = Partition coefficient, log P in n-octanol/phosphate buffer of pH 7.4; type: physicochemical
[18] = Stability in 0.05 M hydrochloric acid buffer of pH 1.2; type: physicochemical
[19] = Stability in phosphate buffer of pH 7.4 assessed as drug release after 7 hrs; type: physicochemical; details: pH 7.4, 7 h
[20] = Stability in rat feces assessed as half life at 250 ug/mL by UV spectrophotometry in presence of azo reductase; type: ADME, tissue-based
[21] = Stability in rat feces assessed as cumulated 5-aminosalicylic acid release measured for 6 to 7 hrs by UV spectrophotometry in presence of azo reductase; type: ADME, tissue-based
Rattus norvegicus [22] = test: Gastrointestinal toxicity in Wistar rat assessed as ulcer index at 2829 mg/kg, po by Rainsford's cold stress method; type: organism-based; parameters: dose 2829 mg/kg, route oral; details: in vivo
Rattus norvegicus [23] = test: Gastrointestinal toxicity in Wistar rat assessed as ulcer index at 3647.7 mg/kg, po by Rainsford's cold stress method; type: organism-based; parameters: dose 3647.7 mg/kg, route oral; details: in vivo

| SMILES | Activity (Rattus norvegicus [1]) | Activity (Rattus norvegicus [2]) | Activity (Rattus norvegicus [4]) | Activity (Rattus norvegicus [6]) | Activity (Rattus norvegicus [8]) | Activity (Rattus norvegicus [9]) | Activity (Rattus norvegicus [10]) [%] | Activity (Rattus norvegicus [11]) | solubility [16] [mg/mL] | logD [17] | Stability [18] | half-life at 250 ug/mL [20] [h] | Activity [21] [%] | further results |
| --- | --- | --- | --- | --- | --- | --- | --- | --- | --- | --- | --- | --- | --- | --- |
| N[C@@H](Cc1ccc(O)cc1)C(=O)O | Active | Active | Active | inactive |  |  |  |  |  |  |  |  |  | Activity (Rattus norvegicus [3]): inactive; Activity (Rattus norvegicus [5]): inactive |
| O=C(O)c1cc(/N=N/c2ccc(S(=O)(=O)Nc3ccccn3)cc2)ccc1O [SULFASALAZINE] |  |  |  |  | Active | Active | 73 | Active |  |  |  |  |  | UI (Rattus norvegicus [7]): 9 |
| Nc1ccc(C(=O)O)c(O)c1 [AMINOSALICYLIC ACID] |  |  |  |  |  |  |  |  |  |  |  |  |  | UI (Rattus norvegicus [12]): 69.61 |
| Nc1ccc(O)c(C(=O)O)c1 [MESALAMINE] |  |  |  |  |  |  | 47 |  |  |  |  |  |  | UI (Rattus norvegicus [12]): 60.03 |
| N[C@H](Cc1ccccc1)C(=O)O | Active | Active | Active | Active |  | Active |  |  |  |  |  |  |  | Activity (Rattus norvegicus [13]): Active; Activity (Rattus norvegicus [14]): Active |
| O=C([O-])c1cc(/N=N/[C@H](Cc2ccccc2)C(=O)[O-])ccc1O.[Na+].[Na+] |  |  |  |  | Active | Active | 62 | Active | 250 | 0.3 | Stable | 2.67 | 85 | UI (Rattus norvegicus [15]): 11.3; Activity [19]: 15% |
| O=C([O-])c1cc(/N=N/[C@@H](Cc2c[nH]c3ccccc23)C(=O)[O-])ccc1O.[Na+].[Na+] |  |  |  |  | Active | Active | 62 | Active | 280 | 0.26 | Stable | 2.4 | 88 | UI (Rattus norvegicus [22]): 13; Activity [19]: 15% |
| N[C@@H](Cc1c[nH]c2ccccc12)C(=O)O | Active | Active | Active | Active |  |  |  |  |  |  |  |  |  | Activity (Rattus norvegicus [13]): Active; Activity (Rattus norvegicus [3]): Active; Activity (Rattus norvegicus [5]): Active; Activity (Rattus norvegicus [14]): Active |
| O=C([O-])c1cc(/N=N/[C@@H](Cc2ccc(O)cc2)C(=O)[O-])ccc1O.[Na+].[Na+] |  |  |  |  | Active | Active | 62 | Active | 260 | 0.35 | Stable | 2.33 | 87 | UI (Rattus norvegicus [23]): 10.76 |
